Measured values taken from patent publication US7803757B2, “Peptides based on the sequence of human lactoferrin and their use” (PharmaSurgics in Sweden AB, priority 1998, dated 2010).
Square brackets hold non-standard residues; d marks the D form. Ends that are not written are not given here. Nle = CCCC[C@H](N)C(=O)O; Orn = NCCC[C@H](N)C(=O)O

Tests used:
Format in all cases: cell-based
[1] = tested on: E. faecalis; assay: killing of bacteria at fixed peptide concentration, E. faecalis (Example 12); settings: peptide 25 μg/ml
Protocol: (§1) In this example, the peptides according to the invention were used to study the effect on the killing of different bacteria.
(§2) The peptides were used at a concentration of 25 μg/ml.

[2] = tested on: C. albicans (ATCC64549); settings: for MIC: ATCC64549; for MMC99%: C. albicans, tested at 1, 10, 25 and 100 μg/ml of peptide
Protocol: (§3) In the examples, the minimal microbicidal concentrations (MMC) and minimal inhibitory concentrations (MIC) were determined as follows, unless otherwise specified in the examples. Bacterial or fungal strains were cultured in BHI medium over night at 37° C. A volume of the culture was transferred to a new tube with BHI and incubated for two more hours. Thereafter the cells were spun down and the pellet was suspended in BHI medium diluted 1/100 (1% BHI). The concentration of bacterial or fungal cells was spectrophotometrically determined at 650 nm. The microbial concentrations were also determined by viable counts. Peptides serially diluted in 1% BHI by twofold or tenfold steps were added in triplicate to the wells of a microtiterplate (200 μl per well). The bacterial or fungal cell solutions were added in 10 μl volumes to give a final concentration of approximately 1-5×10^5 cells per ml in the well. The microplate was incubated at 37° C. in a humid chamber for two hours. Thereafter 5 μl was taken from each well and added as a drop onto a blood agar plate and incubated over night at 37° C. The microplate was incubated for another 20 hours at 37° C. and thereafter analysed spectrophotometrically at 650 nm in a microplate reader (Emax, Molecular Devices, USA). The concentration of peptide causing a 99% reduction of the inoculum after 2 hours of incubation was defined as the MMC99%. The MIC value was defined as the concentration giving no increase in the absorbance value above the background level after 20 hours of incubation.
(§4) C. albicans (ATCC64549) and E. coli O6, respectively, were incubated with the different peptides. The experiments were performed with 1, 10, 25 and 100 μg/ml of peptide.

[3] = tested on: E. coli O6; settings: for MMC99%: E. coli O6, tested at 1, 10, 25 and 100 μg/ml of peptide; for MIC: O6
Protocol: as §3, §4

[4] = tested on: P. aeruginosa; assay: killing of bacteria at fixed peptide concentration, P. aeruginosa (Example 12); settings: peptide 25 μg/ml
Protocol: as §1, §2

[5] = tested on: C. albicans yeast cells (ATCC64549); assay: killing and growth inhibition of C. albicans at pH 4.5 (Example 11); parameters: key to C. albicans inhibition (OD650): + = no increase in OD650 is seen; − = OD650 continues to increase; settings: pH 4.5, 1% BHI, 25 μg/ml of the peptide; for C. albicans inhibition (OD650): OD650 after an additional 18 hours; for C. albicans killing: 99% / C. albicans killing: 100%: 2 hours
Protocol: C. albicans yeast cells (ATCC64549) were incubated for 2 hours at pH 4.5 in BHI medium diluted to 1% of the original concentration containing 25 µg/ml of the peptide. Thereafter the fungal solutions were cultured on blood agar plates. OD650 was measured after incubation during an additional 18 hours. The fungicidal effect of the peptides on C. albicans was determined as the ability of the peptide to kill 100% and 99%, respectively, of the fungus, while the growth inhibitory effect was determined by measuring the OD650. An inhibitory effect existed when no increase in OD650 was recorded.

[6] = tested on: S. aureus; assay: killing of bacteria at fixed peptide concentration, S. aureus (Example 12); settings: peptide 25 μg/ml
Protocol: as §1, §2

[7] = tested on: S. epidermis; assay: killing of bacteria at fixed peptide concentration, S. epidermis (Example 12); settings: peptide 25 μg/ml
Protocol: as §1, §2

[8] = tested on: K. pneumoniae; assay: killing of bacteria at fixed peptide concentration, K. pneumoniae (Example 12); settings: peptide 25 μg/ml
Protocol: as §1, §2

[9] = tested on: S. aureus; assay: MMC99% of modified peptides, S. aureus (Example 25); settings: BHI diluted 1/100, pH approximately 6.7-6.9 (Table 21)
Protocol: as §3
(§5) In this example the fungicidal, and bactericidal effects of the different peptides obtained in examples 18-21 were studied. C. albicans, E. coli and S. aureus, respectively, were incubated in BHI medium diluted 1/100, with a pH of approximately 6.7-6.9. The concentration of each peptide needed to kill 99% of the microorganisms (MMC99%) was determined.

[10] = tested on: E. coli; assay: MMC99% of modified peptides, E. coli (Example 25); settings: BHI diluted 1/100, pH approximately 6.7-6.9 (Table 21)
Protocol: as §3, §5

[11] = tested on: C. albicans; assay: MMC99% of modified peptides, C. albicans (Example 25); settings: BHI diluted 1/100, pH approximately 6.7-6.9 (Table 21)
Protocol: as §3, §5

Row | Substance | MMC99% [9] | MMC99% [10] | MMC99% [11] | further results
1 | QPEATKCFQWQRNMRKVR [Peptide 33] |  |  |  | killing of bacteria: E. faecalis [1]: + (+ = 99% of the bacteria are killed); MIC [2]: 10 µg/mL; MMC99% [2]: 100 µg/mL; MMC99% [3]: 25 µg/mL; MIC [3]: 10 µg/mL; killing of bacteria: P. aeruginosa [4]: − (− = less than 99% of the bacteria are killed); C. albicans inhibition (OD650) [5]: −; C. albicans killing: 99% [5]: − (− = less than 100/99% of the bacteria are killed); C. albicans killing: 100% [5]: − (− = less than 100/99% of the bacteria are killed); killing of bacteria: S. aureus [6]: + (+ = 99% of the bacteria are killed); killing of bacteria: S. epidermis [7]: + (+ = 99% of the bacteria are killed); killing of bacteria: K. pneumoniae [8]: − (− = less than 99% of the bacteria are killed)
2 | C-F-Q-W-Q-R-N-A-R-K-V-R (CFQWQRNARKVR) [SEQ. ID. NO. 75] | 7 | 12 | 25 | 
3 | Peptide 6: SEQ. ID. NO. 1 with X1 none, X2 none, X5 A, X7 K, X11 D, X17-25 none; 14 residues (Ac-TKAFKWQRDMRKVR) |  |  |  | killing of bacteria: E. faecalis [1]: + (+ = 99% of the bacteria are killed); killing of bacteria: P. aeruginosa [4]: + (+ = 99% of the bacteria are killed); C. albicans inhibition (OD650) [5]: −; C. albicans killing: 99% [5]: + (+ = 100/99% of the bacteria are killed); C. albicans killing: 100% [5]: − (− = less than 100/99% of the bacteria are killed); killing of bacteria: S. aureus [6]: + (+ = 99% of the bacteria are killed); killing of bacteria: S. epidermis [7]: + (+ = 99% of the bacteria are killed); killing of bacteria: K. pneumoniae [8]: + (+ = 99% of the bacteria are killed)
4 | Peptide 62: third embodiment, comprises a cysteine; sequence only in sequence listing (ATKCFQWQRNMRKVR) |  |  |  | killing of bacteria: E. faecalis [1]: + (+ = 99% of the bacteria are killed); killing of bacteria: P. aeruginosa [4]: + (+ = 99% of the bacteria are killed); C. albicans inhibition (OD650) [5]: +; C. albicans killing: 99% [5]: + (+ = 100/99% of the bacteria are killed); C. albicans killing: 100% [5]: − (− = less than 100/99% of the bacteria are killed); killing of bacteria: S. aureus [6]: + (+ = 99% of the bacteria are killed); killing of bacteria: S. epidermis [7]: + (+ = 99% of the bacteria are killed); killing of bacteria: K. pneumoniae [8]: + (+ = 99% of the bacteria are killed)
5 | C-F-Q-W-Q-R-N-M-R-K-V-A (CFQWQRNMRKVA) [SEQ. ID. NO. 79] | 7 | 12 | 25 | 
6 | C-F-Q-W-Q-E-N-M-R-K-V-R (CFQWQENMRKVR) [SEQ. ID. NO. 85] | >28 | >25 | >50 | 
7 | C-F-Q-L-Q-R-N-M-R-K-V-R (CFQLQRNMRKVR) [SEQ. ID. NO. 80] | 7 | 12 | 6 | 
8 | C-F-Q-W-Q-R-N-L-R-K-V-R (CFQWQRNLRKVR) [SEQ. ID. NO. 82] | 7 | 12 | 6 | 
9 | Ac-TKAFKWQRDMRKVR-NH2 (N-terminus and C-terminus assumed) [Peptide 53] |  |  |  | MIC [2]: 10 µg/mL; MMC99% [2]: 10 µg/mL; MMC99% [3]: 10 µg/mL; MIC [3]: 10 µg/mL
10 | C-F-Q-W-Q-A-N-M-R-K-V-R (CFQWQANMRKVR) [SEQ. ID. NO. 73] | 7 | 12 | 12 | 
11 | C-F-Q-W-A-R-N-M-R-K-V-R (CFQWARNMRKVR) [SEQ. ID. NO. 72] | 7 | 12 | 12 | 
12 | C-F-Q-W-Q-R-A-M-R-K-V-R (CFQWQRAMRKVR) [SEQ. ID. NO. 74] | 3.5 | 6 | 6 | 
13 | C-F-A-W-Q-R-N-M-R-K-V-R (CFAWQRNMRKVR) [SEQ. ID. NO. 70] | 7 | 6 | 6 | 
14 | C-F-Q-W-Q-R-E-M-R-K-V-R (CFQWQREMRKVR) [SEQ. ID. NO. 86] | 14 | 25 | 25 | 
15 | C-F-Q-W-Q-R-N-M-R-A-V-R (CFQWQRNMRAVR) [SEQ. ID. NO. 77] | 7 | 12 | 25 | 
16 | C-F-Q-W-Q-R-N-M-A-K-V-R (CFQWQRNMAKVR) [SEQ. ID. NO. 76] | 7 | 25 | 25 | 
17 | C-A-Q-W-Q-R-N-M-R-K-V-R (CAQWQRNMRKVR) [SEQ. ID. NO. 69] | 14 | 12 | 12 | 
18 | C-F-Q-A-Q-R-N-M-R-K-V-R (CFQAQRNMRKVR) [SEQ. ID. NO. 71] | 14 | 25 | 12 | 
19 | C-F-Q-W-Q-R-Nle-M-R-K-V-R (CFQWQR[Nle]MRKVR) [SEQ. ID. NO. 90] | 3.5 | 12 | 12 | 
20 | A-F-Q-W-Q-R-N-M-R-K-V-R (AFQWQRNMRKVR) [SEQ. ID. NO. 68] | 28 | >25 | 12 | 
21 | Peptide 66: third embodiment, comprises a cysteine; sequence only in sequence listing (PEATKCFQWQRNMRKVR) |  |  |  | killing of bacteria: E. faecalis [1]: + (+ = 99% of the bacteria are killed); killing of bacteria: P. aeruginosa [4]: − (− = less than 99% of the bacteria are killed); C. albicans inhibition (OD650) [5]: +; C. albicans killing: 99% [5]: + (+ = 100/99% of the bacteria are killed); C. albicans killing: 100% [5]: − (− = less than 100/99% of the bacteria are killed); killing of bacteria: S. aureus [6]: + (+ = 99% of the bacteria are killed); killing of bacteria: S. epidermis [7]: + (+ = 99% of the bacteria are killed); killing of bacteria: K. pneumoniae [8]: − (− = less than 99% of the bacteria are killed)
22 | C-F-Q-W-Q-K-N-M-R-K-V-R (CFQWQKNMRKVR) [SEQ. ID. NO. 81] | 7 | 6 | 6 | 
23 | C-F-Q-W-E-R-N-M-R-K-V-R (CFQWERNMRKVR) [SEQ. ID. NO. 84] | 14 | 25 | 12 | 
24 | Ac-PEATKCFQWQRNMRKVR-NH2 (N-terminus and C-terminus assumed) [Peptide 67] |  |  |  | MIC [2]: 10 µg/mL; MMC99% [2]: 10 µg/mL; MMC99% [3]: 10 µg/mL; MIC [3]: 10 µg/mL
25 | C-F-Q-W-Q-R-Orn-M-R-K-V-R (CFQWQR[Orn]MRKVR) [SEQ. ID. NO. 89] | 3.5 | 6 | 6 | 
26 | C-F-Q-W-Q-R-N-M-R-K-A-R (CFQWQRNMRKAR) [SEQ. ID. NO. 78] | 7 | 12 | 25 | 
27 | C-F-Q-W-Q-R-N-M-K-K-V-R (CFQWQRNMKKVR) [SEQ. ID. NO. 83] | 7 | 6 | 6 | 
28 | Ac-ATKCFQWQRNMRKVR-NH2 (N-terminus and C-terminus assumed) [Peptide 63] |  |  |  | MIC [2]: 10 µg/mL; MMC99% [2]: 10 µg/mL; MMC99% [3]: 10 µg/mL; MIC [3]: 10 µg/mL
